Results as given in ChEMBL document CHEMBL1146482, “Natural products from endophytic microorganisms” (J Nat Prod, 2004).
Values after ≈ are worked out from the molar mass of the structure shown.

Legend:
[1] = test system: Thymocyte; assay: Immunosuppressive activity in thymocytes by thymocyte proliferation assay; type: functional, cell-based
[2] = test system: Lymphocyte; assay: Immunosuppressive activity in lymphocytes by mixed lymphocyte reaction assay; type: functional, cell-based
[3] = test system: Plasmodium falciparum; assay: Antiplasmodial activity against Plasmodium falciparum; type: functional; details: read-out: LD50 (the source's name)
[4] = test system: Bacillus anthracis; assay: Antimicrobial activity against Bacillus anthracis; type: functional

| Compound | IC50 [1] | IC50 [2] | LC50 [3] | MIC [4] |
| --- | --- | --- | --- | --- |
| C=C1CC[C@H]2[C@]3(C)C[C@H](C=C(C)C)O[C@H]3CC[C@]2(C)[C@@H]1Cc1c(O)c(C)c(C)oc1=O [SUBGLUTINOL B] | 100 nM | 100 nM | – | – |
| CS[C@H]1SC[C@H]2C(=O)N(C)[C@@H](C(C)C)C(=O)OC[C@@H](NC(=O)c3cnc4ccccc4n3)C(=O)N[C@@H](C)C(=O)N(C)[C@@H]1C(=O)N(C)[C@@H](C(C)C)C(=O)OC[C@@H](NC(=O)c1cnc3ccccc3n1)C(=O)N[C@@H](C)C(=O)N2C [ECHINOMYCIN] | – | – | 7 ng/mL (≈ 0.00636 µM) | 1 µg/mL (≈ 0.908 µM) |
| C=C1CC[C@H]2[C@]3(C)C[C@@H](C=C(C)C)O[C@H]3CC[C@]2(C)[C@@H]1Cc1c(O)c(C)c(C)oc1=O [SUBGLUTINOL A] | 100 nM | 100 nM | – | – |
